Measurements published in publication PMC11513893, “Discovery of Oral Degraders of the ROS1 Fusion Protein with Potent Activity against Secondary Resistance Mutations” (Journal of Medicinal Chemistry, 2024).
Read-outs that look alike come from different tables or passages of the source.

Tests used:
[1] = system: Ba/F3 ROS1-G2032R; test: Antiproliferation assay; assay type: cell-based, mouse; settings: Mus musculus, BaF3; Ba/F3 cells, cell growth inhibition, 72 h
[2] = system: ROS1; test: ROS1 degradation in Ba/F3 cells (WES immunoblotting); assay type: cell-based; settings: for DC50: concentration needed to reduce ROS1 protein by 50%, Ba/F3 cells; for Dmax (%) (ROS1): maximal degradation of ROS1 in Ba/F3 cells
Procedure, shortened: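 ROS1 and phospho-ROS1 (Tyr2274/2334) in Ba/F3 lysates quantified by capillary immunoassay (WES) with chemiluminescent detection, duplicate experiments. Levels expressed as AUC of the chemiluminescence peak.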

[3] = Metabolic stability in human microsomes; assay type: in vitro ADME; settings: human, pooled human microsomes, pH 7.4, 250 nM compound, NADPH, 37 °C; for half-life at 1 h, 0.25 µM: read-out: metabolic stability in human microsomes T1/2
Experimental: (§1) Pooled human and rat microsomes were prepared and stored at −80 °C prior to use. A master-mix containing microsome, phosphate buffer, and test compound (9 series) solution was made as follows: (1) 3 μL of microsome (20 mg/mL) was diluted with mixed 30 μL of potassium phosphate buffer (pH 7.4; 10×) and 246 μL of water; (2) 3 μL of 25 μM drug solution was added to the microsome; (3) the master solution was prewarmed at 37 °C for 5 min. NADPH solution A (15 μL) and NADPH solution B (3 μL) from Promega were added to the above-mentioned master solution to initiate the reaction. The final concentration of 9 compounds in the reaction system was 250 nM. An aliquot of 20 μL was pipetted from the reaction solution and stopped by the addition of 180 μL of cold MeCN containing 25 ng of Tamoxifen-(N,N-dimethyl-13C2)-15N as an internal standard at the designated time points (0, 5, 15, 30, 45, and 60 min). The incubation solution was vortexed-mixed (800 rpm/10 min) and centrifuged at 3500 rpm for 10 min to precipitate proteins. The supernatant was collected and used for the LC/MS/MS analysis. The natural log of the remaining percentage of the test compound was plotted against time and the gradient of the line was determined.

[4] = Log P measurement; assay type: physicochemical
From the text: An important physicochemical property for a PROTAC molecule is its lipophilicity that largely dictates its pharmaceutical performance such as absorption, permeability, and distribution.

[5] = system: Ba/F3 CD74-ROS1 non mutant; test: Antiproliferation assay (Alamar Blue, 72 h); assay type: cell-based, mouse; settings: Ba/F3 cells, cell growth inhibition
[6] = Pharmacokinetics study in Sprague–Dawley rats; assay type: in vivo; settings: rat; for AUC: read-out: AUC (po)
Experimental: Four to 6 weeks old Sprague–Dawley rats [Crl: CD (SD)] (SPF/VAF) were purchased from Charles River (Wilmington MA). Animals were quarantined/acclimated for 2–6 weeks prior to dose initiation. Sprague–Dawley rats were given oral administration of test compounds (20% PG, 5% Solutol, and 75% of 20% HP-β-CD in water) at different dose levels. After treatment with the compounds, whole blood was collected from each study animal by puncture of the tail vein (0.4 mL of whole blood from rats) into tubes containing K2EDTA at each time point. The plasma samples were divided into 2 aliquots (approximately equal in volume) and stored frozen at −75 ± 15 °C within 2 h of the collection until analysis.
The stock solution of the test compound (0.01 M) in DMSO was prepared and stored at −20 ± 5 °C. The desired serial concentrations of working reference analyte solutions were achieved by diluting a stock analyte solution with 50% acetonitrile (0.1% formic acid) in water solution. The bioanalytical LC–MS/MS method was developed for quantitative determination of each test compound in Sprague–Dawley rat plasma with acceptable selectivity, sensitivity, calibration curve, precision, and accuracy. The analytical method is applicable for the determination of test compounds in Sprague–Dawley rat plasma with a lower limit of quantification of 10.0 ng/mL and an upper limit of quantification of 5000 ng/mL. Five microliters of diluted supernatant was injected into the LC–MS/MS system (TSQ Quantis) and a SynergiTM 4 μm Fusion-RP 80 Å (50 × 2 mm) column using gradient elution and a Triple Quad mass spectrometer) for quantitative analysis. The mobile phases used were 0.1% formic acid in deionized water and 0.1% formic acid in acetonitrile. The pharmacokinetic parameters T1/2 (the biological half-life), Cmax (maximal concentration), Tmax (time at which Cmax is observed), and AUC (area under the plasma concentration–time curve) were calculated from the plasma concentration versus time data using WinNonlin (PhoenixTM, version 8.1, Mountain View, CA, USA).

[7] = Metabolic stability in rat microsomes; assay type: in vitro ADME; settings: rat, pooled rat microsomes, pH 7.4, 250 nM compound, NADPH, 37 °C; for half-life at 1 h, 0.25 µM: read-out: metabolic stability in rat microsomes T1/2
Experimental: as §1

[8] = Pharmacokinetics study in Sprague–Dawley rats; assay type: in vivo; settings: rat
[9] = system: Ba/F3 ROS1 (CD74) S1986F-L2086F; test: Antiproliferation assay; assay type: cell-based; settings: Mus musculus, BaF3; Ba/F3 cell line
Experimental: (§2) Ba/F3 immortalized murine bone marrow–derived pro-B cells were obtained from Creative Biogene (Shirley, NY) and cultured in RPMI supplemented with 10% FBS and IL3 (0.5 ng/mL). Ba/F3 cells expressing ROS1 variants were maintained in RPMI supplemented with 10% FBS and puromycin (0.7 mg/mL). Crizotinib, ceritinib, brigatinib, repotrectinib, and lorlatinib were purchased from MedChem Express. Each compound was dissolved in DMSO and serially diluted in RPMI for cell culture experiments.
(§3) To assess the 72 h effect of drug treatment on cell proliferation, 2000 to 3000 cells were plated in replicates of three in 96-well plates. The plates were placed in an incubator at 37 °C, 5% CO2 for 72 h. Following drug treatments, the cells were incubated with the Alamar Blue Assay reagent (BioRad), 5 μL each well for 4 h at 37 °C and 5% CO2. Luminescence was measured on a multiplate reader and analyzed. […] IC50 values were determined using a nonlinear regression model with a sigmoidal dose response in GraphPad. The data were collected based on triplicate experiments, and presented as mean ± SD.
(§4) cDNA encoding CD74-ROS1 or mutant CD74–ROS1 was cloned into retroviral expression vectors (pLenti), and viruses were generated in HEK293T cells by transfecting with packaging plasmids. The resulting virus was used to infect Ba/F3 cells. After retroviral infection, Ba/F3 cells were selected by incubation with puromycin (0.7 mg/mL) for 2 weeks. For Ba/F3 cells infected by the CD74–ROS1 variants, IL3 was withdrawn from the culture medium at least 2 weeks before the experiments.

[10] = system: Ba/F3 ROS1 (CD74) G2032R-L2086F; test: Antiproliferation assay; assay type: cell-based; settings: Mus musculus, BaF3; Ba/F3 cell line
Experimental: as §2, §3, §4

[11] = system: Ba/F3 ROS1 (CD74) L2086F; test: Antiproliferation assay; assay type: cell-based; settings: Mus musculus, BaF3; Ba/F3 cell line
Experimental: as §2, §3, §4

[12] = system: Ba/F3 ROS1 (CD74) S1986F-G2032R-L2086F; test: Antiproliferation assay; assay type: cell-based; settings: Mus musculus, BaF3; Ba/F3 cell line
Experimental: as §2, §3, §4

[13] = system: Ba/F3 ROS1 (CD74) S1986F-G2032R; test: Antiproliferation assay; assay type: cell-based; settings: Mus musculus, BaF3; Ba/F3 cell line
Experimental: as §2, §3, §4

[14] = system: Ba/F3 ROS1 (CD74) G2032R; test: Antiproliferation assay; assay type: cell-based; settings: Mus musculus, BaF3; Ba/F3 cell line
Experimental: as §2, §3, §4

[15] = system: Ba/F3 ROS1 (SLC34A2) F2075C-G1837E; test: Antiproliferation assay; assay type: cell-based; settings: Mus musculus, BaF3; Ba/F3 cell line
Experimental: as §2, §3

[16] = system: Ba/F3 ROS1 (SLC34A2) G2032R-F2075C; test: Antiproliferation assay; assay type: cell-based; settings: Mus musculus, BaF3; Ba/F3 cell line
Experimental: as §2, §3

[17] = system: Ba/F3 ROS1 (SLC34A2) G2032R-D2113G; test: Antiproliferation assay; assay type: cell-based; settings: Mus musculus, BaF3; Ba/F3 cell line
Experimental: as §2, §3

[18] = system: Ba/F3 ROS1 (SLC34A2) V2098I; test: Antiproliferation assay; assay type: cell-based; settings: Mus musculus, BaF3; Ba/F3 cell line
Experimental: as §2, with “Crizotinib, ceritinib, brigatinib, repotrectinib, and lorlatinib were purchased from MedChem Express.” left out
as §3

[19] = system: Ba/F3 ROS1 L2086F; test: Antiproliferation assay; assay type: cell-based; settings: Mus musculus, BaF3; Ba/F3 cells, cell growth inhibition
From the text: To assess targeted degradation of ROS1 fusion proteins, we first established a mouse pro-B cell line Ba/F3 as a model expressing the CD74-ROS1 oncogene or CD74-ROS1 with clinically observed secondary/tertiary mutations. The Ba/F3 cell line is dependent on interleukin-3 for survival and proliferation. Upon transduction of oncogenic ROS1, Ba/F3 cells become independent of interleukin-3 but dependent on the transduced driver gene. The Ba/F3 models have been effectively employed in the discovery and preclinical development of next generation ROS1 inhibitors.[11],[14],[15] We have tested ROS1 inhibitors against these Ba/F3 cells to validate their sensitivity and resistance to ROS1 inhibition.
as §2, §3, §4

[20] = Sprague-Dawley [Crl: CD (SD)], plasma, 10 mg/kg po
[21] = Sprague-Dawley [Crl: CD (SD)], plasma, 10 mg/kg po vs 1 mg/kg iv
[22] = Sprague-Dawley [Crl: CD (SD)], plasma, 10 mg/kg po, read-out: Tmax

Row | Compound | IC50 [1] [nM] | DC50 [2] [nM] | Dmax (%) (ROS1) [2] | microsomal CLint at 1 h, 0.25 µM [3] [µL/min/mg] | half-life at 1 h, 0.25 µM [3] [h] | logP [4] | IC50 ([5]; Mus musculus, BaF3, 72 h) [nM] | Cmax at 24 h [6, 20] [ng/mL] | half-life [6, 20] [h] | bioavailability [6, 21] [%] | AUC [6, 20] [ng·h/mL] | Tmax [6, 22] [h] | microsomal CLint at 1 h, 0.25 µM [7] [µL/min/mg] | half-life at 1 h, 0.25 µM [7] [h] | AUC (iv) ([8]; 1 mg/kg iv) | further results
1 | COc1cc(N2CCC(N3CCN(CC4CN(c5ccc6c(c5)C(=O)N(C5CCC(=O)NC5=O)C6=O)C4)CC3)CC2)ccc1Nc1ncc(Cl)c(Nc2ccccc2P(C)(C)=O)n1 (stereo not drawn) [9e, 5-(3-((4-(1-(4-((5-Chloro-4-((2-(dimethylphosphoryl)phenyl)amino)pyrimidin-2-yl)amino)-3-methoxyphenyl)piperidin-4-yl)piperazin-1-yl)methyl)azetidin-1-yl)-2-(2,6-dioxopiperidin-3-yl)isoindoline-1,3-dione] | 80 ± 27 | 5.1 | 97 | 57 | 1.01 | 2.5 | 3.8 ± 0.2 | 3240 | 7.7 | 12.2 | 25400 | 2 | 12.8 | 1.8 | 20,850 h·ng/mL | –
2 | COc1cc(N2CCC(N3CCN(CC4CCN(c5ccc6c(c5)C(=O)N(C5CCC(=O)NC5=O)C6=O)CC4)CC3)CC2)ccc1Nc1ncc(Cl)c(Nc2ccccc2P(C)(C)=O)n1 (stereo not drawn) [9f, 5-(4-((4-(1-(4-((5-Chloro-4-((2-(dimethylphosphoryl)phenyl)amino)pyrimidin-2-yl)amino)-3-methoxyphenyl)piperidin-4-yl)piperazin-1-yl)methyl)piperidin-1-yl)-2-(2,6-dioxopiperidin-3-yl)isoindoline-1,3-dione] | 27 ± 10 | 13 | 99 | 63.4 | 0.917 | 2.88 | 11.2 | 284 | 8.32 | 9.8 | 3030 | 2 | 8.8 | 2.62 | 3093 ng·h/mL | IC50 [5]: 11 ± 2 nM
3 | COc1cc(N2CCN(CC3CN(c4ccc5c(c4)CN(C4CCC(=O)NC4=O)C5=O)C3)CC2)ccc1Nc1ncc(Cl)c(Nc2ccccc2P(C)(C)=O)n1 (stereo not drawn) [9m, 3-(5-(3-((4-(4-((5-Chloro-4-((2-(dimethylphosphoryl)phenyl)amino)pyrimidin-2-yl)amino)-3-methoxyphenyl)piperazin-1-yl)methyl)azetidin-1-yl)-1-oxoisoindolin-2-yl)piperidine-2,6-dione] | 120 ± 27 | 9 | 94 | 94.5 | 0.615 | 3.07 | 8 ± 0.9 | – | – | – | – | – | 9.6 | 2.41 | – | Cmax at 24 h ([6]; Sprague-Dawley [Crl: CD (SD)], plasma, 5 mg/kg po): 145 ng/mL; bioavailability ([6]; Sprague-Dawley [Crl: CD (SD)], plasma, 5 mg/kg po vs 0.5 mg/kg iv): 4.8%; AUC (po) ([6]; 5 mg/kg po): 1032 ng·h/mL; T1/2 ([6]; 5 mg/kg po): 8.88 h; Tmax ([6]; 5 mg/kg po): 1 h; AUC (iv) ([8]; 0.5 mg/kg iv): 2151 ng·h/mL
4 | C[C@H]1CNC(=O)c2cnn3ccc(nc23)N[C@H](C)c2cc(F)ccc2O1 [repotrectinib] | – | – | – | – | – | – | – | – | – | – | – | – | – | – | – | IC50 [9]: > 2000 nM; IC50 [10]: 181 ± 22.5 nM; IC50 [11]: 588 ± 76 nM; IC50 [12]: > 2000 nM; IC50 [13]: 31.4 ± 7.3 nM; IC50 [14]: 23.5 ± 3.8 nM; IC50 [15]: 0.4 ± 0.2 nM; IC50 [16]: > 2000 nM; IC50 [17]: 25 ± 6.8 nM; IC50 [18]: 3.5 ± 0.6 nM; IC50 [19]: > 2000 nM
